Data taken from PubChem BioAssay (NCI).
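Here, GI50 denotes the concentration required for 50% inhibition of growth. TGI marks complete inhibition of growth.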

How the values were obtained:
Experiment in all cases: growth of human tumour cells (NCI), 384-well format
SF-539 CNS = system: SF-539 CNS
NCI-H460 NSCLC = system: NCI-H460 NSCLC
T-47D breast = system: T-47D breast
NCI-H23 lung = system: NCI-H23 lung
HOP-92 NSCLC = system: HOP-92 NSCLC
NCI-H522 lung = system: NCI-H522 lung
A549 NSCLC = system: A549 NSCLC
UACC-62 melanoma = system: UACC-62 melanoma
SK-MEL-28 melanoma = system: SK-MEL-28 melanoma
HT29 colon = system: HT29 colon
RXF 393 renal = system: RXF 393 renal
SK-MEL-5 melanoma = system: SK-MEL-5 melanoma
SF-295 CNS = system: SF-295 CNS
LOX IMVI melanoma = system: LOX IMVI melanoma
OVCAR-8 ovarian = system: OVCAR-8 ovarian
SK-OV-3 ovarian = system: SK-OV-3 ovarian
HCT-15 colon = system: HCT-15 colon
MDA-MB-468 breast = system: MDA-MB-468 breast
MCF7 breast = system: MCF7 breast
TK-10 renal = system: TK-10 renal
SR leukemia = system: SR leukemia
PC-3 prostate = system: PC-3 prostate
CAKI-1 renal = system: CAKI-1 renal
HOP-62 NSCLC = system: HOP-62 NSCLC
OVCAR-4 ovarian = system: OVCAR-4 ovarian
A498 renal = system: A498 renal
BT-549 breast = system: BT-549 breast
SF-268 CNS = system: SF-268 CNS
OVCAR-3 ovarian = system: OVCAR-3 ovarian
COLO 205 colon = system: COLO 205 colon
MDA-MB-435 melanoma = system: MDA-MB-435 melanoma
MALME-3M melanoma = system: MALME-3M melanoma
IGROV1 ovarian = system: IGROV1 ovarian
HCC-2998 colon = system: HCC-2998 colon
NCI/ADR-RES ovarian = system: NCI/ADR-RES ovarian
RPMI-8226 leukemia = system: RPMI-8226 leukemia
SNB-19 CNS = system: SNB-19 CNS
SW-620 colon = system: SW-620 colon
MDA-MB-231 breast = system: MDA-MB-231 breast
786-0 renal = system: 786-0 renal
UACC-257 melanoma = system: UACC-257 melanoma
HS 578T breast = system: HS 578T breast
OVCAR-5 ovarian = system: OVCAR-5 ovarian
CCRF-CEM leukemia = system: CCRF-CEM leukemia
M14 melanoma = system: M14 melanoma
K-562 leukemia = system: K-562 leukemia
SN12C renal = system: SN12C renal
DU-145 prostate = system: DU-145 prostate
HL-60(TB) leukemia = system: HL-60(TB) leukemia
MOLT-4 leukemia = system: MOLT-4 leukemia
NCI-H322M lung = system: NCI-H322M lung
ACHN renal = system: ACHN renal
UO-31 renal = system: UO-31 renal
KM12 colon = system: KM12 colon
NCI-H226 lung = system: NCI-H226 lung
SNB-75 CNS = system: SNB-75 CNS
EKVX NSCLC = system: EKVX NSCLC

Cc1c(C#N)cccc1[C@@H](C)Nc1nnc(C)c2cnc(N3CCOCC3)cc12
GI50 (SF-539 CNS): 15.9 µM
TGI (SF-539 CNS): 29.3 µM
GI50 (NCI-H460 NSCLC): 17.5 µM
TGI (NCI-H460 NSCLC): 32.2 µM
GI50 (T-47D breast): 11.3 µM
TGI (T-47D breast): 24.6 µM
GI50 (NCI-H23 lung): 10.6 µM
TGI (NCI-H23 lung): 23.2 µM
GI50 (HOP-92 NSCLC): 0.0569 µM
TGI (HOP-92 NSCLC): 14.3 µM
GI50 (NCI-H522 lung): 11.5 µM
TGI (NCI-H522 lung): 24 µM
GI50 (A549 NSCLC): 16.7 µM
TGI (A549 NSCLC): 36.3 µM
GI50 (UACC-62 melanoma): 16.6 µM
TGI (UACC-62 melanoma): 30.3 µM
GI50 (SK-MEL-28 melanoma): 15.4 µM
TGI (SK-MEL-28 melanoma): 29.7 µM
GI50 (HT29 colon): 15.7 µM
TGI (HT29 colon): 30 µM
GI50 (RXF 393 renal): 12 µM
TGI (RXF 393 renal): 24.6 µM
GI50 (SK-MEL-5 melanoma): 11 µM
TGI (SK-MEL-5 melanoma): 23 µM
GI50 (SF-295 CNS): 14.7 µM
TGI (SF-295 CNS): 28 µM
GI50 (LOX IMVI melanoma): 14 µM
TGI (LOX IMVI melanoma): 27.1 µM
GI50 (OVCAR-8 ovarian): 15 µM
TGI (OVCAR-8 ovarian): 29 µM
GI50 (SK-OV-3 ovarian): 16.7 µM
TGI (SK-OV-3 ovarian): 30.7 µM
GI50 (HCT-15 colon): 16.1 µM
TGI (HCT-15 colon): 29.9 µM
GI50 (MDA-MB-468 breast): 0.39 µM
TGI (MDA-MB-468 breast): 6.37 µM
GI50 (MCF7 breast): 15.8 µM
TGI (MCF7 breast): 35.5 µM
GI50 (TK-10 renal): 15.2 µM
TGI (TK-10 renal): 38.9 µM
GI50 (SR leukemia): 0.749 µM
TGI (SR leukemia): 18.1 µM
GI50 (PC-3 prostate): 17 µM
TGI (PC-3 prostate): 32.3 µM
GI50 (CAKI-1 renal): 10.5 µM
TGI (CAKI-1 renal): 23 µM
GI50 (HOP-62 NSCLC): 14.2 µM
TGI (HOP-62 NSCLC): 27.9 µM
GI50 (OVCAR-4 ovarian): 8.18 µM
TGI (OVCAR-4 ovarian): 22 µM
GI50 (A498 renal): 12.1 µM
TGI (A498 renal): 24.6 µM
GI50 (BT-549 breast): 14.1 µM
TGI (BT-549 breast): 27.4 µM
GI50 (SF-268 CNS): 16 µM
TGI (SF-268 CNS): 30.8 µM
GI50 (OVCAR-3 ovarian): 13.4 µM
TGI (OVCAR-3 ovarian): 26.4 µM
GI50 (COLO 205 colon): 16.5 µM
TGI (COLO 205 colon): 30.5 µM
GI50 (MDA-MB-435 melanoma): 18.2 µM
TGI (MDA-MB-435 melanoma): 32.4 µM
GI50 (MALME-3M melanoma): 16.6 µM
TGI (MALME-3M melanoma): 30.6 µM
GI50 (IGROV1 ovarian): 15.5 µM
TGI (IGROV1 ovarian): 31.4 µM
GI50 (HCC-2998 colon): 18.3 µM
TGI (HCC-2998 colon): 33.3 µM
GI50 (NCI/ADR-RES ovarian): 16.6 µM
TGI (NCI/ADR-RES ovarian): 32.1 µM
GI50 (RPMI-8226 leukemia): 11.2 µM
TGI (RPMI-8226 leukemia): 23.3 µM
GI50 (SNB-19 CNS): 14.3 µM
TGI (SNB-19 CNS): 37.5 µM
GI50 (SW-620 colon): 12.6 µM
TGI (SW-620 colon): 25.4 µM
GI50 (MDA-MB-231 breast): 14.3 µM
TGI (MDA-MB-231 breast): 29.3 µM
GI50 ([…]-0 renal): 13.1 µM
TGI (786-0 renal): 26.5 µM
GI50 (UACC-257 melanoma): 19.5 µM
TGI (UACC-257 melanoma): 33.9 µM
GI50 (HS 578T breast): 13.8 µM
TGI (HS 578T breast): 26.9 µM
GI50 (OVCAR-5 ovarian): 19.1 µM
TGI (OVCAR-5 ovarian): 38.9 µM
GI50 (CCRF-CEM leukemia): 19.5 µM
TGI (CCRF-CEM leukemia): 33.7 µM
GI50 (M14 melanoma): 17.2 µM
TGI (M14 melanoma): 31.1 µM
GI50 (K-562 leukemia): 0.163 µM
TGI (K-562 leukemia): 15 µM
GI50 (SN12C renal): 1.65 µM
TGI (SN12C renal): 19.9 µM
GI50 (DU-145 prostate): 18.5 µM
TGI (DU-145 prostate): 37.6 µM
GI50 (HL-60(TB) leukemia): 21.8 µM
TGI (HL-60(TB) leukemia): 36.2 µM
GI50 (MOLT-4 leukemia): 12.8 µM
TGI (MOLT-4 leukemia): 25.5 µM
GI50 (NCI-H322M lung): 11.8 µM
TGI (NCI-H322M lung): 26.6 µM
GI50 (ACHN renal): 14.5 µM
TGI (ACHN renal): 31.6 µM
GI50 (UO-31 renal): 13.3 µM
TGI (UO-31 renal): 26.8 µM
GI50 (KM12 colon): 4.85 µM
TGI (KM12 colon): 22.2 µM
GI50 (NCI-H226 lung): 12.7 µM
TGI (NCI-H226 lung): 26.5 µM
GI50 (SNB-75 CNS): 16.3 µM
TGI (SNB-75 CNS): 33.3 µM
GI50 (EKVX NSCLC): 11.7 µM
TGI (EKVX NSCLC): 26.8 µM
